According to patent publication US8217055B2, “Pyrido-pyrazine derivatives useful as herbicidal compounds” (Syngenta Crop Protection LLC, priority 2006, dated 2012):

Key:
Test in all cases: Example B2 herbicidal action, post-emergence, pots in glasshouse, evaluated after 13 days (10=total damage to plant; 0=no damage to plant)
Type in all cases: in vivo
Conditions in all cases: rate 1000 g/ha
Echinochloa crus-galli = tested on: Echinochloa crus-galli
Method: (§1) Seeds of a variety of test species were sown in standard soil in pots. After 8 days cultivation (post-emergence) under controlled conditions in a glasshouse (at 24/16° C., day/night; 14 hours light; 65% humidity), the plants were sprayed with an aqueous spray solution derived from the formulation of the technical active ingredient in acetone/water (50:50) solution containing 0.5% Tween 20 (polyoxyethelyene sorbitan monolaurate, CAS RN 9005-64-5). The test plants were then grown in a glasshouse under controlled conditions in a glasshouse (at 24/16° C., day/night; 14 hours light; 65% humidity) and watered twice daily. After 13 days, the test was evaluated (10=total damage to plant; 0=no damage to plant).

Ipomea hederaceae = tested on: Ipomea hederaceae
Method: as §1

Setaria faberi = tested on: Setaria faberi
Method: as §1

Solanum nigrum = tested on: Solanum nigrum
Method: as §1

Amaranthus retroflexus = tested on: Amaranthus retroflexus
Method: as §1

| SMILES | ECHCG damage score (10=total damage to plant; 0=no damage to plant) (Echinochloa crus-galli) | IPOHE damage score (10=total damage to plant; 0=no damage to plant) (Ipomea hederaceae) | SETFA damage score (10=total damage to plant; 0=no damage to plant) (Setaria faberi) | SOLNI damage score (10=total damage to plant; 0=no damage to plant) (Solanum nigrum) | AMARE damage score (10=total damage to plant; 0=no damage to plant) (Amaranthus retroflexus) |
| --- | --- | --- | --- | --- | --- |
| CC(C)(C)C(=O)Oc1c(-c2cc(F)c(F)cc2Cl)c(=O)n(CC(F)F)c2nccnc12 [A33] | 4 | 7 | 7 | 10 | 10 |
| O=c1c(-c2c(Cl)cccc2C(F)(F)F)c(O)c2nccnc2n1CC(F)F [B13] | 9 | 10 | 9 | 10 | 10 |
| O=c1c(-c2cc(Cl)ccc2C(F)(F)F)c(O)c2nccnc2n1CC(F)F [B10] | 9 | 10 | 9 | 10 | 10 |
| COc1cccc(-c2c(OC(=O)C(C)(C)C)c3nccnc3n(CC(F)F)c2=O)c1OC [A16] | 3 | 7 | 8 | 10 | 8 |
| CC(C)C(=O)Oc1c(-c2ccccc2OC(F)F)c(=O)n(CC(F)F)c2nccnc12 [A26] | 2 | 5 | 2 | 5 | 10 |
| COc1ccc(OC(F)(F)F)cc1-c1c(OC(=O)C(C)C)c2nccnc2n(CC(F)F)c1=O [A23] | 8 | 9 | 9 | 10 | 10 |
| COc1ccc(OC(F)(F)F)cc1-c1c(O)c2nccnc2n(CC(F)F)c1=O [B8] | 9 | 9 | 9 | 9 | 10 |
| CC(C)C(=O)Oc1c(-c2c(F)ccc(F)c2Cl)c(=O)n(CC=C(Cl)Cl)c2nccnc12 [C14] | 0 | 1 | 0 | 8 | 8 |
| CC(C)(C)C(=O)Oc1c(-c2c(F)cccc2Cl)c(=O)n(CC(F)F)c2nccnc12 [A34] | 4 | 9 | 6 | 10 | 10 |
| CC(C)C(=O)Oc1c(-c2cc(F)c(Cl)cc2Cl)c(=O)n(CC(F)F)c2nccnc12 [A20] | 7 | 7 | 8 | 9 | 10 |
| CC(C)(C)C(=O)Oc1c(-c2ccc(C(F)(F)F)cc2Br)c(=O)n(CC(F)F)c2nccnc12 [A10] | 4 | 5 | 3 | 9 | 10 |
| O=c1c(-c2c(Cl)ccc(Cl)c2Cl)c(O)c2nccnc2n1CC(F)F [B11, 5-(2,2-difluoro-ethyl)-8-hydroxy-7-(2,3,6-trichloro-phenyl)-5H-pyrido[2,3-b]pyrazin-6-one] | 8 | 10 | 9 | 10 | 10 |
